{"source": "patent US10105344B2", "about": "“Methods of reducing blood lactate concentration” (Stokely-Van Camp, Inc., priority 2010, dated 2018)", "key": {"trained cyclists": {"test_system": "trained cyclists", "experiment": "Onset of blood lactate accumulation (OBLA) test, incremental cycling exercise", "format": "in vivo", "procedure": "Two tests were performed to determine whether quercetin lowers blood lactate or improves maximal lactate steady state: a VO2PEAK test and an onset of blood lactate accumulation [OBLA] test. These tests were performed in a laboratory maintained at 20-25° C. and 35-40% relative humidity with the participants exercising on a Velotron bicycle trainer (Velotron Pro, RacerMate Inc, Seattle, Wash.) calibrated according to manufacturer's recommendations. VO2PEAK was determined using an incremental multistage cycling protocol: following a 10-min warm-up at 100 W, participants cycled at 150 W for five minutes then power output was increased by 50 W every three minutes until 250 W after which power output was increased by 25 W every minute until volitional exhaustion. Oxygen consumption (VO2) and carbon dioxide production (VCO2) were computed from expiratory gases collected and analyzed with a MOXUS metabolic cart (AEI Technologies, Pittsburgh, Pa.). OBLA was determined on a second occasion, separated from the measurement of VO2PEAK by at least seven days. The participants exercised for 3.5 minute stages at 55, 60, 65, 70, 75, 80, 85, and 90% VO2PEAK, and 3-mL blood samples were collected during the final 30 sec of each stage for measuring blood lactate concentration, OBLA was determined using curve fitting techniques and expressed as a percentage of VO2PEAK. OBLA was determined before and after 28 days of quercetin supplementation (1000 mg/d) contained in a 2% carbohydrate beverage with electrolytes and vitamins C and B3."}, "C2C12 cells": {"test_system": "C2C12 cells", "experiment": "Muscle cell assay: lactate concentration in C2C12 cells after electrical pulse stimulation", "format": "cell-based, Mouse", "procedure": "Mouse C2C12 myoblasts are purchased from American Type Culture Collection (ATCC; Manassas, Va.) and grown to 90% confluence in high glucose Dubecco's Modified Eagle media (DMEM) with 10% fetal bovine serum (FBS). Myoblasts from the purchased lot are grown in T75 flasks and subcultured >5 times prior to plating in collagen coated six-well plates for experimentation. To induce myotube differentiation FBS containing media is replaced with 2% horse serum containing media or serum free media for 5-7 days. Myoblasts are grown and myotubes are maintained with or without antibiotics in a 37° C., 5% CO2 incubator. Electrical pulsing is applied to the myotubes using a C-Pace EP Cell Culture Stimulator (IonOptix; Milton, Mass.). […] Immediately prior to stimulation, day old media is removed and replaced with 5 ml of fresh differentiation media. For incubation experiments, differentiated myotubes are pre-treated with quercetin and/or other compounds. Approximately 18 hours prior and again immediately before electrical pulse stimulation, DMEM containing 2% horse serum or serum free media is replaced with the same media containing quercetin or other test compounds at varying concentrations. Samples from media from resting and contracted cells (with and without compound incubation) is analyzed enzymatically for lactate with a modified method of Lowry and Passonneau (A Flexible System of Enzymatic Analysis, pages 194-199, Academic Press, INC. 1972 hereby incorporated by reference in its entirety.) The effect of quercetin on lactate concentration of muscle cells subjected to electrical pulse stimulation as generally described in Example 1 and Example 2 was studied. […] Media was changed every 24 hours. After 48 hours, growth media was replaced with AIM 5 differentiation media which was also changed every 24 hours. […] Lactate concentrations were measured with the Enzychrom L-Lactate Kit as follows. […] The optical density (OD0) was read for time “zero” at 565 nm and OD20 after a […] incubation at room temperature."}}}
{"smiles": "O=c1c(O)c(-c2ccc(O)c(O)c2)oc2cc(O)cc(O)c12", "note": "[quercetin]", "values": [{"measurement": "improvement of the % VO2 Peak where the cyclist achieved a blood lactate concentration of 4 mmol", "setting": "trained cyclists; after quercetin administration vs before, FIG. 1", "result": "about 3%"}, {"measurement": "% VO2 Peak to achieve a 4 mmol blood lactate concentration", "setting": "trained cyclists; after quercetin administration, about 71% before, FIG. 1", "result": "about 73%"}, {"measurement": "cycling power output required to elicit a 4 mmol blood lactate", "setting": "trained cyclists; endurance cyclists, after 28 days of quercetin administration (1000 mg/d), 244 W before", "result": 250, "unit": "W"}, {"measurement": "increase in cycling power output required to elicit a 4 mmol blood lactate", "setting": "trained cyclists; endurance cyclists, before vs after 28 days of quercetin administration (1000 mg/d), FIG. 1", "result": "6 watts (W)"}, {"measurement": "day 5 lactate concentration post stimulus", "setting": "C2C12 cells; plate C (primed days 3 and 4, quercetin days 3, 4, 5) vs plate A without quercetin, 60 minutes low intensity stimulation (10V/0.5 hz/24 ms), FIG. 5", "result": "lower day 5 lactate concentration post stimulus"}, {"measurement": "day 5 lactate concentration post stimulus", "setting": "C2C12 cells; plate D (primed days 3 and 4, quercetin days 3, 4, 5) vs plate B without quercetin, 60 minutes high intensity stimulation (10V/4 hz/2 ms), FIG. 6", "result": "lower day 5 lactate concentration post stimulus"}, {"measurement": "day 5 lactate concentration post stimulus", "setting": "C2C12 cells; plate E (no priming, quercetin day 5 only) vs plate F without quercetin, 60 minutes high intensity stimulation (10V/4 hz/2 ms), FIG. 7", "result": "lower day 5 lactate concentration post stimulus"}]}
